Assay type in all cases: cell-based
Experiment [1] deals with S. pyogenes ATCC 19615. Kind of experiment: MIC against S. pyogenes ATCC 19615. Conditions: Streptococcus pyogenes, ATCC19615, S. pyogenes ATCC 19615; read-out: MIC.
The test system of experiment [2] is K. pneumoniae ATCC 10031. Kind of experiment: MIC against K. pneumoniae ATCC 10031. Conditions: Klebsiella pneumoniae, ATCC10031, read-out: MIC.
The test system of experiment [3] is S. aureus BAA 977 iErmA. Briefly: MIC against S. aureus BAA 977 iErmA. Particulars: Staphylococcus aureus, BAA977.
Experiment [4] relates to E. faecalis ATCC 29212. Kind of experiment: MIC against E. faecalis ATCC 29212. Particulars: Enterococcus faecalis, ATCC29212, E. faecalis ATCC 29212; read-out: MIC.
For experiment [5], the system named is H. influenzae ATCC 49247. Kind of experiment: MIC against H. influenzae ATCC 49247. Conditions: Haemophilus influenzae, ATCC49247, H. influenzae ATCC 49247; read-out: MIC.
Experiment [6] deals with E. coli ATCC 25922. Kind of experiment: MIC against E. coli ATCC 25922. Conditions: Escherichia coli, ATCC25922, read-out: MIC.
For experiment [7], the system named is E. coli MP-9 ΔTolC. Briefly: MIC against E. coli MP-9 ΔTolC. Conditions: Escherichia coli.
For experiment [8], the system named is S. aureus MP-549 msr(a) USA 300. Kind of experiment: MIC against S. aureus MP-549 msr(a) USA 300. Conditions: Staphylococcus aureus, USA300, S. aureus MP-549 msr(a) USA 300.
In experiment [9] the test system is S. pneumoniae ATCC 49619. Briefly: MIC against S. pneumoniae ATCC 49619. Conditions: Streptococcus pneumoniae, ATCC49619, S. pneumoniae ATCC 49619; read-out: MIC.
Experiment [10] relates to S. aureus ATCC 29213. Briefly: MIC against S. aureus ATCC 29213. Particulars: Staphylococcus aureus, ATCC29213, S. aureus ATCC 29213; read-out: MIC.
For experiment [11], the system named is E. coli MP-74 LptD mutant. Briefly: MIC against E. coli MP-74 LptD mutant. Conditions: Escherichia coli.
Experiment [12] deals with C. difficile BAA 1805. Kind of experiment: MIC against C. difficile BAA 1805. Conditions: Clostridioides difficile, BAA1805.
Experiment [13] relates to E. faecalis MMX 847 MacRes. Briefly: MIC against E. faecalis MMX 847 MacRes. Particulars: Enterococcus faecalis, MMX847MACRES.
Experiment [14] deals with S. pyogenes MMX 946 Macrolide-Resistant. Kind of experiment: MIC against S. pyogenes MMX 946 Macrolide-Resistant. Conditions: Streptococcus pyogenes.
The test system of experiment [15] is S. aureus MMX 3035 cErmA. Kind of experiment: MIC against S. aureus MMX 3035 cErmA. Conditions: Staphylococcus aureus, MMX3035CERMA.
In experiment [16] the test system is S. pneumoniae MMX 3028 cErmB. Kind of experiment: MIC against S. pneumoniae MMX 3028 cErmB. Conditions: Streptococcus pneumoniae, MMX3028CERMB.
Experiment [17] concerns S. pneumoniae MMX 3031 cMefA. Briefly: MIC against S. pneumoniae MMX 3031 cMefA. Particulars: Streptococcus pneumoniae, MMX3031CMEFA.
In experiment [18] the test system is B. fragilis ATCC 25285. Briefly: MIC against B. fragilis ATCC 25285. Conditions: Bacteroides fragilis, ATCC25285.
The mark [19] stands for this setting: S. pyogenes MMX 946 Macrolide-Resistant (MacRes), read-out: MIC.
Where [20] appears, read: S. pneumoniae MMX 3028 cErmB, read-out: MIC.

The structures appear in SMILES notation. ≈ marks a conversion by molar mass, not a printed value. Read-outs that look alike come from different tables or passages of the source.

We go through 9 compounds from patent US11566039B2, “Lincosamide antibiotics and uses thereof” (President and Fellows of Harvard College, priority 2017, dated 2023).

As for `CCC[C@@H]1C[C@@H](C(=O)N[C@H]([C@H](C)NC(=O)CN)[C@H]2OC(SC)[C@H](O)C(O)C2O)N(C)C1` (stereo partly drawn) [FSA-215071], the MIC was 16 mg/L (≈ 34.6 µM) in experiment [1]; > 64 mg/L in [2]; > 64 mg/L in experiment [3]; > 64 mg/L in experiment [4]; > 64 mg/L in [5]; > 64 mg/L in experiment [6]. The MIC in experiment [7] was > 64 mg/L; in [8] it was > 64 mg/L; in [9] it was 8 mg/L (≈ 17.3 µM); in experiment [10] it was > 64 mg/L; in [11], > 64 mg/L; in experiment [12], > 64 mg/L.

On to `CCC[C@@H]1C[C@@H](C(=O)N[C@H](CN=[N+]=[N-])[C@H]2OC(SC)[C@H](O)C(O)C2O)N(C)C1` (stereo partly drawn) [FSA-215003], for which the MIC is 2 mg/L (≈ 4.79 µM) in experiment [1]; > 64 mg/L in experiment [13]; 32 mg/L (≈ 76.6 µM) in [4]; > 64 mg/L in [14] (setting [19]); > 64 mg/L in [15]; > 64 mg/L in experiment [16] (setting [20]). Moreover, the MIC was > 64 mg/L in experiment [6]; 4 mg/L (≈ 9.58 µM) in experiment [7]; 0.125 mg/L (≈ 0.299 µM) in experiment [17]; 0.125 mg/L (≈ 0.299 µM) in experiment [8]; 4 mg/L (≈ 9.58 µM) in [9]; 8 mg/L (≈ 19.2 µM) in experiment [10].

As for `CCC[C@@H]1C[C@@H](C(=O)N[C@H]([C@H](C)NC(=O)CN(C)C)[C@H]2OC(SC)[C@H](O)C(O)C2O)N(C)C1` (stereo partly drawn) [FSA-215078b], the MIC is 8 mg/L (≈ 16.3 µM) in experiment [1]; > 64 mg/L in [2]; > 64 mg/L in experiment [3]; > 64 mg/L in experiment [4]; > 64 mg/L in experiment [5]; > 64 mg/L in experiment [6]. For the same compound, the MIC in experiment [7] is > 64 mg/L; in [8] it was > 64 mg/L; in [9], 8 mg/L (≈ 16.3 µM); in experiment [10], > 64 mg/L; in experiment [11], > 64 mg/L; in experiment [12] it was > 64 mg/L.

As to `CCC[C@@H]1C[C@@H](C(=O)N[C@@H]([C@H]2O[C@H](SC)[C@H](O)[C@@H](O)[C@H]2O)[C@H](C)Cl)N(C)C1` [Clindamycin, clindamycin, reference compound], the MIC is 0.06 mg/L (≈ 0.141 µM) in experiment [1]; 8 mg/L (≈ 18.8 µM) in experiment [2]; 16 mg/L (≈ 37.6 µM) in experiment [4]; > 64 mg/L in experiment [14]; > 64 mg/L in experiment [16]; 16 mg/L (≈ 37.6 µM) in experiment [5]. The MIC in [18] worked out at 0.5 mg/L (≈ 1.18 µM); in experiment [7] it was 8 mg/L (≈ 18.8 µM); in experiment [17], 0.06 mg/L (≈ 0.141 µM); in experiment [8] it was 0.125 mg/L (≈ 0.294 µM); in experiment [9] it was 0.12 mg/L (≈ 0.282 µM); in [11], 2 mg/L (≈ 4.71 µM). The compound also yielded an MIC in [12] of 8 mg/L (≈ 18.8 µM).

As to `CCC[C@@H]1C[C@@H](C(=O)N[C@H](CNc2ccc(-c3cccnc3)cc2)[C@H]2OC(SC)[C@H](O)C(O)C2O)N(C)C1` (stereo partly drawn) [FSA-214087], the MIC in experiment [1] is 8 mg/L (≈ 14.7 µM); in experiment [13] it was > 64 mg/L; in experiment [4] it was > 64 mg/L; in experiment [14] (setting [19]) it was > 64 mg/L; in experiment [15], > 64 mg/L; in experiment [16] (setting [20]) it was > 64 mg/L. Further, the MIC is > 64 mg/L in experiment [6]; > 64 mg/L in experiment [7]; 32 mg/L (≈ 58.7 µM) in experiment [17]; 32 mg/L (≈ 58.7 µM) in experiment [8]; 8 mg/L (≈ 14.7 µM) in experiment [9]; 32 mg/L (≈ 58.7 µM) in [10].

As to `CCC[C@@H]1C[C@@H](C(=O)N[C@H]([C@H](C)NC(=O)CNC)[C@H]2OC(SC)[C@H](O)C(O)C2O)N(C)C1` (stereo partly drawn) [FSA-215078a], the MIC in experiment [1] was 8 mg/L (≈ 16.8 µM); in [2], > 64 mg/L; in experiment [3] it was > 64 mg/L; in experiment [4], > 64 mg/L; in experiment [5], > 64 mg/L; in [18], > 64 mg/L. The MIC in experiment [6] is > 64 mg/L; in experiment [7], > 64 mg/L; in [8], > 64 mg/L; in experiment [9], 16 mg/L (≈ 33.6 µM); in experiment [10] it was > 64 mg/L; in experiment [11], > 64 mg/L. For the same compound, the MIC in experiment [12] is > 64 mg/L.

As for `CCC[C@@H]1C[C@@H](C(=O)N[C@@H]([C@H]2OC(SC)[C@H](O)C(O)C2O)[C@H](C)N(C)C)N(C)C1` (stereo partly drawn) [FSA-215070], the MIC in experiment [1] is 32 mg/L (≈ 73.8 µM); in experiment [2] it was > 64 mg/L; in experiment [3], 64 mg/L (≈ 148 µM); in experiment [4] it was > 64 mg/L; in experiment [5] it was > 64 mg/L; in [6] it was > 64 mg/L. For the same compound, the MIC was > 64 mg/L in experiment [7]; 64 mg/L (≈ 148 µM) in [8]; 16 mg/L (≈ 36.9 µM) in [9]; 64 mg/L (≈ 148 µM) in [10]; > 64 mg/L in experiment [11]; > 64 mg/L in experiment [12].

For `CCC[C@@H]1C[C@@H](C(=O)N[C@H]([C@H](C)NC)[C@H]2OC(SC)[C@H](O)C(O)C2O)N(C)C1` (stereo partly drawn) [FSA-215082], the MIC in experiment [1] is 32 mg/L (≈ 76.3 µM); in experiment [2], > 64 mg/L; in experiment [3], 64 mg/L (≈ 153 µM); in [4] it was > 64 mg/L; in [5], > 64 mg/L; in experiment [18], > 64 mg/L. The MIC was > 64 mg/L in [6]; > 64 mg/L in [7]; > 64 mg/L in experiment [8]; 16 mg/L (≈ 38.1 µM) in experiment [9]; 64 mg/L (≈ 153 µM) in [10]; > 64 mg/L in experiment [11]. In experiment [12], the MIC is > 64 mg/L.

Regarding `CCC[C@@H]1C[C@@H](C(=O)N[C@H]([C@H](C)N)[C@H]2OC(SC)[C@H](O)C(O)C2O)N(C)C1` (stereo partly drawn) [FSA-215049, 7-(S)-deoxyaminolincomycin], the MIC is 16 mg/L (≈ 39.5 µM) in [1]; > 64 mg/L in experiment [2]; 64 mg/L (≈ 158 µM) in experiment [3]; > 64 mg/L in [4]; > 64 mg/L in experiment [5]; > 64 mg/L in experiment [6]. The MIC in experiment [7] is > 64 mg/L; in experiment [8] it was 32 mg/L (≈ 78.9 µM); in experiment [9], 8 mg/L (≈ 19.7 µM); in [10], 64 mg/L (≈ 158 µM); in experiment [11], > 64 mg/L; in experiment [12], > 64 mg/L.
